{"source": "patent US20110003773A1", "about": "“USING FULLERENES TO ENHANCE AND STIMULATE HAIR GROWTH” (Luna Innovations Incorporated, priority 2008, published 2011)", "tested_on": "shaved C57/B6 mice", "assay": "Hair growth in shaved C57/B6 mice after injection at the shaved site", "format": "in vivo", "conditions": "300 μl of 1 μg/ml in PBS injected at the shaved site every day for 12 days, vs PBS", "experimental": "The backs of C57/B6 mice were shaved bald on the intracapsular part of the back. 300 μl of phosphate buffered saline (PBS) or 300 μl of 1 μg/ml of compound 5 (labelled LnW0033 in FIG. 2) in PBS was injected at the shaved site every day for 12 days.\nThe backs of C57/B6 mice were shaved bald on the intracapsular part of the back. 300 μl PBS or 300 μl of 1 μg/ml Polyhydroxy-C60 (C60(OH)˜18-24; BuckyUSA, Houston, Tex.; called “Poly C60” in FIG. 3) in PBS was injected at the shaved site every day for 12 days.", "data": [{"substance": "Polyhydroxy-C60", "values": [{"measurement": "hair growth (photograph at day 12) compared to control", "result": "hair growth enhancement"}]}]}
